# Laboratory results published in publication PMC10643210, “Expanding structural diversity of 5′-aminouridine moiety of sansanmycin via mutational biosynthesis” (Frontiers in Bioengineering and Biotechnology, 2023).
# Read-outs that look alike come from different tables or passages of the source.
# Assays:
# M. Phlei [1] = conditions: microdilution in Mueller-Hinton broth, 10 h at 37°C, visual read-out, triplicate
# E. coli ΔtolC = conditions: microdilution in Mueller-Hinton broth, 10 h at 37°C, visual read-out, triplicate
# M. tuberculosis H37Rv [2] = test system: M. tuberculosis H37Rv
# P. aeruginosa 11 [3] = conditions: microdilution in Mueller-Hinton broth, 10 h at 37°C, visual read-out, triplicate
# M. tuberculosis S17 [4] = conditions: clinical isolate susceptible to isoniazid and rifampicin; Alamar blue, 7H9 broth, triplicate wells
# M. tuberculosis S17 [5] = assay: microbe, parasite or virus in culture; conditions: Mycobacterium tuberculosis, S17, read-out: MIC M. tuberculosis S17
# M. tuberculosis H37Rv [6] = assay: microbe, parasite or virus in culture; conditions: Mycobacterium tuberculosis, read-out: MIC M. tuberculosis H37Rv
# Pae PAO1 = conditions: Figure 1F; ref Okamoto et al., 2012; cited from earlier work
# [7] = Stability in KH2PO4 buffer, HPLC; type: physicochemical; conditions: chemical stability, 0.05 M KH2PO4 buffer pH 6.0, room temperature (method: 28 °C), HPLC peak area, three parallel repeats
# Procedure: Poor stability is one of the factors hindering the development of sansanmycin analogues into drug candidates. Thus, we conducted stability experiments followed the method reported previously ([Shi et al., 2016]) on the two active sansanmycin analogues, SS-KK-2 and SS-KK-3 (Figure 5). These experiments were carried out at room temperature with the parent compound SS-A as a control.
# FIGURE 5 Stability of SS-A, SS-KK-2 and SS-KK-3. (A–C) HPLC analysis of SS-A, SS-KK-2 and SS-KK-3 at indicated days in KH2PO4 buffer (pH 6.0) at room temperature. (D) The changes of the level of SS-A, SS-KK-2 and SS-KK-3 over time. All samples were analyzed by HPLC and quantified according to the areas of peaks. Each sample underwent three parallel repeats. SS-A, black line; SS-KK-2, orange line; SS-KK-3, green line.
# The stability assessment of sansanmycin A and its analogues was conducted using a previously reported method ([Shi et al., 2016]). Sansanmycins were dissolved in 0.05 M KH2PO4 buffer (with pH adjusted to 6.0 using NaOH) and incubated at 28 °C for 9 days with testing conducted every 3 days. Each sample underwent three parallel repeats. All samples were analyzed by HPLC and quantified by peak area analysis.
# Mtb H37Rv [8] = conditions: Figure 1F, natural sansanmycins; reference not given; cited from earlier work
# Mtb H37Rv [9] = conditions: Figure 1F, ref Tran et al., 2017, cited from earlier work
# MraY A. aeolicus = conditions: Figure 1F, ref Mashalidis et al., 2019, cited from earlier work
# Text: (§1) FIGURE 1 Chemical structures of natural UPAs (black) and synthetic analogues with modified 5′-aminouridine moiety (blue) and their corresponding inhibitory activity. (A) The pseudo-tetrapeptide backbone of UPAs. (B) The chemical structures of 5′-aminouridine of natural UPAs. (C–E) The chemical structures of modified 5′-aminouridine of synthetic analogues. (F) Detailed information on structure and inhibitory activities of natural UPAs and synthesized derivatives. Pae, Pseudomonas aeruginosa; Mtb, Mycobacterium tuberculosis; B. subtilis, Bacillus subtilis; S. aureus, Staphylococcus aureus; A. ae ...
# Pae PAM1020 = conditions: Figure 1F; ref Boojamra et al., 2001; cited from earlier work
# P. aeruginosa 11 [10] = assay: microbe, parasite or virus in culture; conditions: Pseudomonas aeruginosa, 11, 10 h, read-out: MIC P. aeruginosa 11
# M. Phlei [11] = assay: microbe, parasite or virus in culture; conditions: Mycolicibacterium phlei, 10 h, read-out: MIC M. Phlei
# MraY B. subtilis = conditions: Figure 1F; ref Inukai et al., 1993; cited from earlier work
# Text: as §1
compound,measurement,setting,value
CSCC[C@H](NC(=O)N[C@@H](Cc1c[nH]c2ccccc12)C(=O)O)C(=O)N[C@H](C(=O)NC[C@H]1O[C@@H](n2ccc(=O)[nH]c2=O)C[C@@H]1O)[C@H](C)N(C)C(=O)[C@@H](N)Cc1cccc(O)c1 [SS-KK-1],MIC M. Phlei,M. Phlei [1],>32 µg/mL
same,MIC E. coli ΔtolC,E. coli ΔtolC,>32 µg/mL
same,MIC M. tuberculosis H37Rv,M. tuberculosis H37Rv [2],>64 µg/mL
same,MIC P. aeruginosa 11,P. aeruginosa 11 [3],>32 µg/mL
same,MIC M. tuberculosis S17,M. tuberculosis S17 [4],>64 µg/mL
"CC(=O)NC[C@H]1CN(c2ccc(N3CCOCC3)c(F)c2)C(=O)O1 [LZD, linezolid]",MIC,M. tuberculosis S17 [5],0.25 µg/mL
same,MIC,M. tuberculosis H37Rv [6],0.25 µg/mL
"NNC(=O)c1ccncc1 [INH, isoniazid]",MIC,M. tuberculosis S17 [5],0.03 µg/mL
same,MIC,M. tuberculosis H37Rv [6],0.03 µg/mL
3′-hydroxypacidamycin D,MIC (Pae PAO1),Pae PAO1,32 µg/mL
"CSCC[C@H](NC(=O)N[C@@H](Cc1c[nH]c2ccccc12)C(=O)O)C(=O)N[C@H](C(=O)N/C=C1/C[C@@H](O)[C@H](n2ccc(=O)[nH]c2=O)O1)[C@H](C)N(C)C(=O)[C@@H](N)Cc1cccc(O)c1 [SS-A, sansanmycin A]",MIC M. Phlei,M. Phlei [1],64 µg/mL
same,MIC E. coli ΔtolC,E. coli ΔtolC,4 µg/mL
same,residual quantities after 9 days of incubation,[7],below 70%
same,MIC (Mtb H37Rv),Mtb H37Rv [8],16 µg/mL
same,MIC M. tuberculosis H37Rv,M. tuberculosis H37Rv [2],16 µg/mL
same,MIC P. aeruginosa 11,P. aeruginosa 11 [3],16 µg/mL
same,MIC M. tuberculosis S17,M. tuberculosis S17 [4],16 µg/mL
Sansanmycin B,MIC (Mtb H37Rv),Mtb H37Rv [8],8 µg/mL
Sansanmycin C,MIC (Mtb H37Rv),Mtb H37Rv [8],> 32 µg/mL
Dihydrosansanmycin C,MIC50 (Mtb H37Rv),Mtb H37Rv [9]; value in brackets,18.5 ± 0.70 µM
same,MIC50 (Mtb H37Rv),Mtb H37Rv [9],16 µg/mL
Dihydrosansanmycin B,MIC50 (Mtb H37Rv),Mtb H37Rv [9]; value in brackets,0.30 ± 0.07 µM
same,MIC50 (Mtb H37Rv),Mtb H37Rv [9],0.25 µg/mL
3′-hydroxymureidomycin A,IC50,MraY A. aeolicus; value in brackets,52 nM
same,IC50 (MraY A. aeolicus),MraY A. aeolicus,0.045 µg/mL
Pacidamycin D,MIC (Pae PAM1020),Pae PAM1020,64 µg/mL
same,MIC (Pae PAO1),Pae PAO1,64 µg/mL
[H]/N=C(/N)N[C@H]1[C@H](O)[C@@H](O)[C@H](O[C@@H]2O[C@@H](C)[C@](O)(C=O)[C@H]2O[C@@H]2O[C@@H](CO)[C@H](O)[C@@H](O)[C@@H]2NC)[C@@H](N/C(N)=N\[H])[C@@H]1O [streptomycin],MIC E. coli ΔtolC,E. coli ΔtolC,2 µg/mL
same,MIC,P. aeruginosa 11 [10],8 µg/mL
same,MIC,M. Phlei [11],16 µg/mL
CSCC[C@H](NC(=O)N[C@@H](Cc1c[nH]c2ccccc12)C(=O)O)C(=O)N[C@H](C(=O)NC[C@H]1O[C@@H](n2ccc(=O)[nH]c2=O)C[C@@H]1O)[C@H](C)N(C)C(=O)[C@@H](N)Cc1ccc(O)cc1 [SS-KK-2],MIC M. Phlei,M. Phlei [1],>32 µg/mL
same,MIC E. coli ΔtolC,E. coli ΔtolC,1 µg/mL
same,stability compared with SS-A,"[7]; 9 days, tested every 3 days",slightly higher level of stability than SS-A
same,MIC M. tuberculosis H37Rv,M. tuberculosis H37Rv [2],32 µg/mL
same,MIC P. aeruginosa 11,P. aeruginosa 11 [3],>32 µg/mL
same,MIC M. tuberculosis S17,M. tuberculosis S17 [4],32 µg/mL
"CO[C@H]1/C=C/O[C@@]2(C)Oc3c(C)c(O)c4c(O)c(c(/C=N/N5CCN(C)CC5)c(O)c4c3C2=O)NC(=O)/C(C)=C\C=C\[C@H](C)[C@H](O)[C@@H](C)[C@@H](O)[C@@H](C)[C@H](OC(C)=O)[C@@H]1C [RIF, rifampicin]",MIC,M. tuberculosis S17 [5],0.25 µg/mL
same,MIC,M. tuberculosis H37Rv [6],0.125 µg/mL
Mureidomycin A,IC50 (MraY B. subtilis),MraY B. subtilis,0.05 µg/mL
Dihydrosansanmycin A,MIC50 (Mtb H37Rv),Mtb H37Rv [9]; value in brackets,0.50 ± 0.05 µM
same,MIC50 (Mtb H37Rv),Mtb H37Rv [9],0.43 µg/mL
Dihydropacidamycin D,MIC (Pae PAM1020),Pae PAM1020,64 µg/mL
